Results taken from patent EP3436024B1, “3-BETA-METHOXY-PREG FOR USE IN THE TREATMENT OF TREATMENT RESISTANT DEPRESSION” (Mapreg, priority 2016, dated 2017).

How the values were obtained:
[1] = target: T1, human progesterone receptor(PR) (Homo sapiens, UniProt P06401); assay: Test of progesterone receptor agonist activity (MMTV-luciferase transactivation in transfected HEK293T cells); assay type: cell-based; conditions: 24 hours, increasing amounts, Figure 1
T1 construct: expressed in transfected cells; host or cells: HEK293T
T1 sequence (P06401 1-933): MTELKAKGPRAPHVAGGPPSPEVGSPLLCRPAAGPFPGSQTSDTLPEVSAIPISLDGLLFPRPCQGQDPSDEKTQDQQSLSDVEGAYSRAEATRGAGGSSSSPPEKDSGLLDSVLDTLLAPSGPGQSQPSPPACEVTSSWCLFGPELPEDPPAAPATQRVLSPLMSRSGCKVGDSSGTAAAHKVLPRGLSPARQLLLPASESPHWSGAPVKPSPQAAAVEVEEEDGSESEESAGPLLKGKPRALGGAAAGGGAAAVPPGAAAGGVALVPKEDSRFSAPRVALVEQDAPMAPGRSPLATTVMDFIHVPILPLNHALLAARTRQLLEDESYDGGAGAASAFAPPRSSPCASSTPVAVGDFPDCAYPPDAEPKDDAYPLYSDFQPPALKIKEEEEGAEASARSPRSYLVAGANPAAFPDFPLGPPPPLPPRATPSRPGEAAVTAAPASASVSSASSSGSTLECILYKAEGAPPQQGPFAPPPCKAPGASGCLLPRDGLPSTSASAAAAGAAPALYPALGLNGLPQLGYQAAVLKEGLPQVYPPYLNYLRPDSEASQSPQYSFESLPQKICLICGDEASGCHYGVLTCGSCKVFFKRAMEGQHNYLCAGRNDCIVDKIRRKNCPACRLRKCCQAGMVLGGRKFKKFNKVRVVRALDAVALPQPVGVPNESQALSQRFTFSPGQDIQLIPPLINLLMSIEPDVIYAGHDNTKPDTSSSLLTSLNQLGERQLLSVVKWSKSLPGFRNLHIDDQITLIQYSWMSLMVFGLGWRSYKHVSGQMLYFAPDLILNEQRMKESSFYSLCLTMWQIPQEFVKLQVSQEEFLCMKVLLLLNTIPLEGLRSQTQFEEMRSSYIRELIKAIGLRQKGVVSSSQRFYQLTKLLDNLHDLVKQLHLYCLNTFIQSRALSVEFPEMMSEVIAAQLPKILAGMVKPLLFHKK
Method: (§1) The main experimental setting used is the following: HEK293T cells were transiently transfected, using calcium phosphate precipitation technology, with expression vectors pSG5hPR (which permits expression of human progesterone receptor(PR)), pFC31-luc (contains the luciferase gene under the control of the MMTV promoter, which is in turn activated by binding of a progestin to progesterone receptor) and pcbetagal (which permits expression of betagalactosidase), and cultured during 24 hours with increasing amounts of various compositions: • 1. […] Test of progesterone receptor […] activity: transfected cells were cultured with progesterone (1 nM) and increasing amounts of RU486 (a well-known progesterone receptor antagonist) or 3-methoxy-pregnenolone. With this setting, a compound with progesterone receptor antagonist activity competes with progesterone for the occupation of progesterone receptor and results in a progressive loss of transactivation activity when the amount of this compound is increased compared to progesterone.

[2] = target: T1, human progesterone receptor(PR); assay: Test of progesterone receptor antagonist activity (MMTV-luciferase transactivation in transfected HEK293T cells, with progesterone 1 nM); assay type: cell-based; conditions: 24 hours, progesterone 1 nM plus increasing amounts, Figure 2
Method: as §1

[3] = target: T2, Mineralocorticoid Receptor (MR) (Rattus norvegicus, UniProt P22199); assay: Radioligand binding assay, steroid hormone receptor MR; conditions: MAP4343 10 µM; 4.5 nM [^3H] D-Aldosterone; Wistar Rat kidney
T2 construct: Wistar Rat kidney; from tissue; host or cells: Wistar rat kidney
T2 sequence (P22199 whole entry): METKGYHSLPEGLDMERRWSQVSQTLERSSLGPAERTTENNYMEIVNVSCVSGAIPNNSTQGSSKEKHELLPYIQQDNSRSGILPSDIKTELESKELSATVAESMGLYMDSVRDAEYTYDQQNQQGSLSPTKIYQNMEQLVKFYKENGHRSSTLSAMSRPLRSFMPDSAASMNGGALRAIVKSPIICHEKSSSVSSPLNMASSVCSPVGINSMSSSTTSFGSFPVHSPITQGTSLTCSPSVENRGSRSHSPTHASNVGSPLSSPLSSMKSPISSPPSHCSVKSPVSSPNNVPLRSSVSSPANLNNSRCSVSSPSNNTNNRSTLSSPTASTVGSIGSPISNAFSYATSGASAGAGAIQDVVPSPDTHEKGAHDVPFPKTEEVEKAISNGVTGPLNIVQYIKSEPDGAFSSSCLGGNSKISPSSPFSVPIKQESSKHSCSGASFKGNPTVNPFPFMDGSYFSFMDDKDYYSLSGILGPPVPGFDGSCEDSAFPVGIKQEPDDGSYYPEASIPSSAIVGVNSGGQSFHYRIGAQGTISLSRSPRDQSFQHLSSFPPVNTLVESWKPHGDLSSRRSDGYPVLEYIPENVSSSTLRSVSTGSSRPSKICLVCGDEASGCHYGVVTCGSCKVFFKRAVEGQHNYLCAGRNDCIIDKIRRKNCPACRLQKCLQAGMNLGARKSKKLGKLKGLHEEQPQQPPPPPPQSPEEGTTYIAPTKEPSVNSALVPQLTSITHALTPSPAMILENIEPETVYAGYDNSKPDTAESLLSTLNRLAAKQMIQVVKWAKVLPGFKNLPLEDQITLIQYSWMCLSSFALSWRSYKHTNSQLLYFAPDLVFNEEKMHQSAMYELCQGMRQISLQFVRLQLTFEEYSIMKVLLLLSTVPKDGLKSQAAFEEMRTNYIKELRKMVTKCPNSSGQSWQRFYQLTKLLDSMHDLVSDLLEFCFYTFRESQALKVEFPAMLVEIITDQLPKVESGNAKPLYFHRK
Method: Binding affinity of 3β-methoxy-PREG (MAP4343) for receptors of steroid hormones was evaluated using radioligand binding assays.
Table 3. Affinity of MAP4343 (10 µM) for steroid hormones receptors measured by radioligand binding assays. […] None of the results met significance criteria at concentrations used.

Noradrenergic α1 = assay: CNS receptor binding assay, α1; conditions: MAP4343 10 µM; [^3H] prazosin; rat cerebral cortex
Method: (§2) MAP4343 has been screened for in vitro affinity to 80 different CNS neurotransmitters receptors using various validated binding assays.
(§3) Table 4. In vitro affinity of MAP4343 (10 µM) for CNS neurotransmitter receptors associated with side effects and/or abuse liability. Data are the average of two individual assays for each receptor and are expressed as % inhibition of the control specific binding of the reference compound. Results showing an inhibition higher than 50% are considered to represent significant effects of the test compound.

Noradrenergic β1 = Noradrenergic β1 (Homo sapiens, UniProt P08588); assay: CNS receptor binding assay, β1; conditions: MAP4343 10 µM; [^3H] (-) CGP 12177; Human recombinant (HEK-293 cells); read-out: % Inhibition of control specific binding
Sequence of Noradrenergic β1 (P08588 whole entry): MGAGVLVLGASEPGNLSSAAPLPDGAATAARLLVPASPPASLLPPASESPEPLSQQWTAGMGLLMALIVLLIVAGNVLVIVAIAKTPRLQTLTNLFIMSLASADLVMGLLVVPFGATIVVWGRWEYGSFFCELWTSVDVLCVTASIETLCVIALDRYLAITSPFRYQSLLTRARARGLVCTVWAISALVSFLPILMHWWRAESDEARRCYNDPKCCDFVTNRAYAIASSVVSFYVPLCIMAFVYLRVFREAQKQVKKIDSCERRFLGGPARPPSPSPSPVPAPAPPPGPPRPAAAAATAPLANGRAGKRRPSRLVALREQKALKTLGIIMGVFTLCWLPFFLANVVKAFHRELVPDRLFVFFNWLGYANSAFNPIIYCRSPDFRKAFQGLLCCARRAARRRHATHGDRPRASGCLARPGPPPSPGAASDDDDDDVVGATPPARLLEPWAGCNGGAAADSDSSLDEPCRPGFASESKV
Method: as §2, §3

Serotoninergic 5-HT1B = Serotoninergic 5-HT1B (Rattus norvegicus, UniProt P28564); assay: CNS receptor binding assay, 5-HT1B; conditions: MAP4343 10 µM; [^125I] CYP + (-) propranolol; rat cerebral cortex; read-out: % Inhibition of control specific binding
Sequence of Serotoninergic 5-HT1B (P28564 whole entry): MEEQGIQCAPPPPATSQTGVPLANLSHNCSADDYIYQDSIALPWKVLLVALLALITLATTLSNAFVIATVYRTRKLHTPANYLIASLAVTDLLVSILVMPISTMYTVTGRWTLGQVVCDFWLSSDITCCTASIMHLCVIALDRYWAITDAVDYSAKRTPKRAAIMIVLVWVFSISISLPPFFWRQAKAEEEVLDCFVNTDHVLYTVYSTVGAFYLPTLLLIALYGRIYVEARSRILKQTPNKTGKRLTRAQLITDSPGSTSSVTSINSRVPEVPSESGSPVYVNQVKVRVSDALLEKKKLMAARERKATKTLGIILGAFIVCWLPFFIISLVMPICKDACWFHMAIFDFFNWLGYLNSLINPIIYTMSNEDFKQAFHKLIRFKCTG
Method: as §2, §3

Dopaminergic D1 = Dopaminergic D1 (Homo sapiens, UniProt P21728); assay: CNS receptor binding assay, D1; conditions: MAP4343 10 µM; [^3H] SCH 23390; Human recombinant (CHO cells); read-out: % Inhibition of control specific binding
Sequence of Dopaminergic D1 (P21728 whole entry): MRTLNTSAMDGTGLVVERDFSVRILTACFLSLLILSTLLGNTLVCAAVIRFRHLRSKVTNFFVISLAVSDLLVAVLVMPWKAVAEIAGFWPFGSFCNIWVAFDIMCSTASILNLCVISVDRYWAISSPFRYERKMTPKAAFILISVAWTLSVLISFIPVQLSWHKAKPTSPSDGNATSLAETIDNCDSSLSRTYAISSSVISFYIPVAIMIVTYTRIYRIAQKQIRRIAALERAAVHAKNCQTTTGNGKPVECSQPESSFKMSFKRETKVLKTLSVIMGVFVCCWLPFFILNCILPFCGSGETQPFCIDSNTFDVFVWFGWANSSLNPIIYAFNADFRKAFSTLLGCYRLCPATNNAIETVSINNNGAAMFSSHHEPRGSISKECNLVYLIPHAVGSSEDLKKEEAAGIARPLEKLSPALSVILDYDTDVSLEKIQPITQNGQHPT
Method: as §2, §3

GABA (non-selective) = assay: CNS receptor binding assay, GABA (non-selective); conditions: MAP4343 10 µM; [^3H] GABA; rat cerebral cortex
Method: as §2, §3

NMDA PCP site = assay: CNS receptor binding assay, NMDA PCP site; conditions: MAP4343 10 µM; [^3H] TCP; rat cerebral cortex
Method: as §2, §3

Cannabinoid CB1 = Cannabinoid CB1 (Homo sapiens, UniProt P21554); assay: CNS receptor binding assay, CB1; conditions: MAP4343 10 µM; [^3H] CP 55940; Human recombinant (CHO cells); read-out: % Inhibition of control specific binding
Sequence of Cannabinoid CB1 (P21554 whole entry): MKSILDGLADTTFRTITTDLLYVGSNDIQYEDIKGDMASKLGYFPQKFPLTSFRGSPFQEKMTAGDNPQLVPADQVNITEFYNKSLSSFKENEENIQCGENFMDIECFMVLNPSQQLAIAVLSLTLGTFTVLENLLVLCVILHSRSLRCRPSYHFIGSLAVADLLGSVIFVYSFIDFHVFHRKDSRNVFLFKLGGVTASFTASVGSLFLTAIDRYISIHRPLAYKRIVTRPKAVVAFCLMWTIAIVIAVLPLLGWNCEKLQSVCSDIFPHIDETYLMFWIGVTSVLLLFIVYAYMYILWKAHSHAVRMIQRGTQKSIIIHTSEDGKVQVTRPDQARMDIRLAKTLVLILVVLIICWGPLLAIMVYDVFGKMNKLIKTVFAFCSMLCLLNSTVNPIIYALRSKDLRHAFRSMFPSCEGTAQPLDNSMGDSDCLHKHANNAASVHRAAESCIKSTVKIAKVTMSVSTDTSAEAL
Method: as §2, §3

Oppioid δ2 = Oppioid δ2 (Homo sapiens, UniProt P41143); assay: CNS receptor binding assay, opioid δ2; conditions: MAP4343 10 µM; [^3H] DADLE; Human recombinant (CHO cells); read-out: % Inhibition of control specific binding
Sequence of Oppioid δ2 (P41143 whole entry): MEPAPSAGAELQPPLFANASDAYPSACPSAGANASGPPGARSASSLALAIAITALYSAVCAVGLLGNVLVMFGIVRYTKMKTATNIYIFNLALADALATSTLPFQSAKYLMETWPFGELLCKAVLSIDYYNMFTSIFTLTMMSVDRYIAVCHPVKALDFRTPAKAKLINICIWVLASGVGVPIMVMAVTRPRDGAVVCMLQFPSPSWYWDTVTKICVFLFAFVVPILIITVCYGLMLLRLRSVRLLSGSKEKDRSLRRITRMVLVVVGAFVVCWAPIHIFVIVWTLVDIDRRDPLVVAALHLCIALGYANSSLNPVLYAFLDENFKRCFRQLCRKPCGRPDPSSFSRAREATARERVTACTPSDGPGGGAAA
Method: as §2, §3

SMILES: CO[C@H]1CC[C@@]2(C)C(=CC[C@H]3[C@@H]4CC[C@H](C(C)=O)[C@@]4(C)CC[C@@H]32)C1 (stereo in doubt) [MAP4343, 3β-methoxy-pregna-5-ene-20-one]
- progesterone receptor agonist activity (transactivation activity leading to the expression of luciferase) [1]: does not permit such a transactivation activity
- progesterone receptor antagonist activity [2]: weak progesterone receptor antagonist
- % inhibition [3]: 25%
- inhibition at 10 µM [3]: < 25%
- % Inhibition of control specific binding (Noradrenergic α1): 4%
- inhibition at 10 µM (Noradrenergic β1): 1%
- inhibition at 10 µM (Serotoninergic 5-HT1B): 4%
- inhibition at 10 µM (Dopaminergic D1): 2%
- % Inhibition of control specific binding (GABA (non-selective)): 2%
- % Inhibition of control specific binding (NMDA PCP site): -10%
- inhibition at 10 µM (Cannabinoid CB1): 12%
- inhibition at 10 µM (Oppioid δ2): -3%
